Assay [1] has as its target T1, Purified recombinant NBD1 (Homo sapiens, UniProt P13569).
T1 construct: Purified recombinant NBD1 was produced using previously described methods; made in house
As to the kind of experiment: Aggregation analysis using differential static light scattering (DSLS): thermal stability of NBD1. The class given is binding. The settings on record: NBD1 0.2 mg/ml; Tagg of compound well minus average Tagg of DMSO control wells. In a few lines: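 Recombinant NBD1 at 0.2 mg/ml in Tris/NaCl/MgCl2 buffer with 2 mM ATP, 2 mM DTT, 1% glycerol, pH 7.6, was incubated with compound and heated at 1 °C/min to 70 °C while static light scattering was monitored. Tagg was taken from the curve inflection point and reported as ΔTagg relative to DMSO controls.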

For assay [2], the system named is Primary human bronchial epithelial cells from a ΔF508 homozygous CF donor (CF-HBE cells). As to the kind of experiment: TECC24 recording of CFTR-mediated transepithelial chloride transport, AUC fold over benchmark VX-809 @10 μM. The class given is cell-based. The following applies: 48 hours incubation, AUC of forskolin-stimulated IEQ. A digest of the protocol:
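CF-HBE cells on inserts were treated with compound for 48 h at 36.5 °C, then recorded in current-clamp with benzamil 10 μM, forskolin 10 μM, and finally CFTR inhibitor-172 20 μM in pH 7.4 Hepes saline. Equivalent Cl− current AUC between forskolin and inhibitor addition is expressed as a ratio to VX-809 AUC: A <3, B 3–6, C 6–20.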

T1 sequence (P13569 423-646 limits assumed): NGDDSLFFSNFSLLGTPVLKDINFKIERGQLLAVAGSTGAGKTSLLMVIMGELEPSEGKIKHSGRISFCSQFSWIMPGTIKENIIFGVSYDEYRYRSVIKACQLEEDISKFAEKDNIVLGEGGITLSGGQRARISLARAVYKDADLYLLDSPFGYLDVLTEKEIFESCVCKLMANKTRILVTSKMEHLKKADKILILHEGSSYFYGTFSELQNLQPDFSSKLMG

Turning to `CN1CC(C)(C)CCCC(c2cccc(CCC(=O)O)c2)n2ccc(n2)-c2cc(ccc2F)Oc2c(F)cc3[nH]ccc3c2CCC1=O` (stereo not drawn) [Compound 38, 3-[3-(23,29-difluoro-10,10,12-trimethyl-13-oxo-25-oxa-5,12,20,31-tetrazapentacyclo[24.3.1.12,5.016,24.017,21]hentriaconta-1(30),2(31),3,16,18,21,23,26,28-nonaen-6-yl)phenyl]propanoic acid], the “DSLS (ΔTagg)” value in assay [1] is “A (an ΔTagg value less than or equal to 5 °C is marked “A”)”. In addition, the “TECC (test agent AUC divided by VX-809 AUC)” value in assay [2] is “A (a TECC value less than 3 is marked “A”)”.

Take `CN1CC(C)(C)CCCC(c2ccccc2)n2ccc(n2)-c2cc(ccc2F)Oc2c(F)cc3[nH]ccc3c2CCC1=O` (stereo not drawn) [Compound 39, 23,29-difluoro-10,10,12-trimethyl-6-phenyl-25-oxa-5,12,20,31-tetrazapentacyclo[24.3.1.12,5.016,24.017,21]hentriaconta-1(30),2(31),3,16,18,21,23,26,28-nonaen-13-one]: the “DSLS (ΔTagg)” value in assay [1] was “A (an ΔTagg value less than or equal to 5 °C is marked “A”)”. Further, the “TECC (test agent AUC divided by VX-809 AUC)” value in assay [2] is “A (a TECC value less than 3 is marked “A”)”.

With `CN1CC(C)(C)CCCC(c2cccc(CCC(=O)O)c2)c2cnc([nH]2)-c2cc(ccc2F)Oc2c(F)cc3[nH]ccc3c2CCC1=O` (stereo not drawn) [Compound 41, 3-[3-(23,29-Difluoro-10,10,12-trimethyl-13-oxo-25-oxa-3,12,20,31-tetrazapentacyclo[24.3.1.12,5.016,24.017,21]hentriaconta-1(30),2,4,16,18,21,23,26,28-nonaen-6-yl)phenyl]propanoic acid], the “DSLS (ΔTagg)” value in assay [1] is “B (a value above 5 °C and less than or equal to 10 °C is marked “B”)”. Moreover, the “TECC (test agent AUC divided by VX-809 AUC)” value in assay [2] was “B (a value between 3 and 6 is marked “B”)”.

`CN1CC(C)(C)OCCC(C)(c2ccccc2)c2cnc([nH]2)-c2cc(ccc2F)Oc2c(F)cc3[nH]ccc3c2CCC1=O` (stereo not drawn) [Compound 43, 23,29-Difluoro-6,10,10,12-tetramethyl-6-phenyl-9,25-dioxa-3,12,20,31-tetrazapentacyclo[24.3.1.12,5.016,24.017,21]hentriaconta-1(30),2,4,16,18,21,23,26,28-nonaen-13-one]: the “DSLS (ΔTagg)” value in assay [1] is “A (an ΔTagg value less than or equal to 5 °C is marked “A”)”. The “TECC (test agent AUC divided by VX-809 AUC)” value in assay [2] is “A (a TECC value less than 3 is marked “A”)”.

For the compound `CN1CC(C)(C)CCCC(C)(c2cccc(CCC(=O)O)c2)c2nnc([nH]2)-c2cc(ccc2F)Oc2c(F)cc3[nH]ccc3c2CCC1=O` (stereo not drawn) [Compound 44, 3-[3-(23,29-Difluoro-6,10,10,12-tetramethyl-13-oxo-25-oxa-3,4,12,20,31-pentazapentacyclo[24.3.1.12,5.016,24.017,21]hentriaconta-1(30),2,4,16,18,21,23,26,28-nonaen-6-yl)phenyl]propanoic acid], the “DSLS (ΔTagg)” value in assay [1] is “C (a value greater than 10 °C and less than or equal to 25 °C is marked “C”)”. The “TECC (test agent AUC divided by VX-809 AUC)” value in assay [2] is “C (a value between 6 and 20 is marked “C”)”.

As to `CC1(C)CCC(C)(c2cccc(CCC(=O)O)c2)c2cnc([nH]2)-c2cc(ccc2F)Oc2c(F)cc3[nH]ccc3c2CCNC(=O)OC1` (stereo not drawn) [Compound 45, 3-[3-(23,29-Difluoro-6,9,9-trimethyl-12-oxo-11,25-dioxa-3,13,20,31-tetrazapentacyclo[24.3.1.12,5.016,24.017,21]hentriaconta-1(30),2,4,16(24),17(21),18,22,26,28-nonaen-6-yl)phenyl]propanoic acid], the “DSLS (ΔTagg)” value in assay [1] is “C (a value greater than 10 °C and less than or equal to 25 °C is marked “C”)”. Moreover, the “TECC (test agent AUC divided by VX-809 AUC)” value in assay [2] was “B (a value between 3 and 6 is marked “B”)”.

In the case of `CN1CC(C)(C)CCCC(C)(c2cccc(CCc3nnn[nH]3)c2)c2cnc([nH]2)-c2cc(ccc2F)Oc2c(F)cc3[nH]ccc3c2CCC1=O` (stereo not drawn) [Compound 52, 23,29-Difluoro-6,10,10,12-tetramethyl-6-[3-[2-(1H-tetrazol-5-yl)ethyl]phenyl]-25-oxa-3,12,20,31-tetrazapentacyclo[24.3.1.12,5.016,24.017,21]-hentriaconta-1(30),2,4,16,18,21,23,26,28-nonaen-13-one], the “DSLS (ΔTagg)” value in assay [1] is “C (a value greater than 10 °C and less than or equal to 25 °C is marked “C”)”. Besides, the “TECC (test agent AUC divided by VX-809 AUC)” value in assay [2] is “A (a TECC value less than 3 is marked “A”)”.

As to `CN1CC(C)(C)CCCCC(C)(c2cccc(CCC(=O)O)c2)c2cnc([nH]2)-c2cc(ccc2F)Oc2c(F)cc3[nH]ccc3c2CCC1=O` (stereo not drawn) [Compound 61, 3-[3-(24,30-Difluoro-6,11,11,13-tetramethyl-14-oxo-26-oxa-3,13,21,32-tetrazapentacyclo[25.3.1.12,5.017,25.018,22]dotriaconta-1(31),2,4,17,19,22,24,27,29-nonaen-6-yl)phenyl]propanoic acid], the “DSLS (ΔTagg)” value in assay [1] was “C (a value greater than 10 °C and less than or equal to 25 °C is marked “C”)”. In addition, in assay [2], the “TECC (test agent AUC divided by VX-809 AUC)” value is “B (a value between 3 and 6 is marked “B”)”.

On to `CN1CC(C)(C)CCCCC(C)(c2ccccc2)c2cnc([nH]2)-c2cc(ccc2F)Oc2c(F)cc3[nH]ccc3c2CCC1=O` (stereo not drawn) [Compound 62, 24,30-Difluoro-6,11,11,13-tetramethyl-6-phenyl-26-oxa-3,13,21,32-tetrazapentacyclo[25.3.1.12,5.017,25.018,22]dotriaconta-1(31),2,4,17,19,22,24,27,29-nonaen-14-one], for which the “DSLS (ΔTagg)” value in assay [1] was “A (an ΔTagg value less than or equal to 5 °C is marked “A”)”. Further, in assay [2], the “TECC (test agent AUC divided by VX-809 AUC)” value is “A (a TECC value less than 3 is marked “A”)”.

Turning to `CN1CC(C)(C)CCCC(C)(c2ccc(CC(=O)O)cc2)c2cnc([nH]2)-c2cc(ccc2F)Oc2c(F)cc3[nH]ccc3c2CCC1=O` (stereo not drawn) [Compound 63, 2-[4-(23,29-Difluoro-6,10,10,12-tetramethyl-13-oxo-25-oxa-3,12,20,31-tetrazapentacyclo[24.3.1.12,5.016,24.017,21]hentriaconta-1(30),2,4,16,18,21,23,26,28-nonaen-6-yl)phenyl]acetic acid], the “DSLS (ΔTagg)” value in assay [1] is “B (a value above 5 °C and less than or equal to 10 °C is marked “B”)”. The “TECC (test agent AUC divided by VX-809 AUC)” value in assay [2] is “A (a TECC value less than 3 is marked “A”)”.

For `CN1CCCCC(C)(c2cccc(CCC(=O)O)c2)c2cnc([nH]2)-c2cc(ccc2F)Oc2c(F)cc3[nH]ccc3c2CC1=O` (stereo not drawn) [Compound 68, 3-[3-(21,27-Difluoro-6,11-dimethyl-12-oxo-23-oxa-3,11,18,29-tetrazapentacyclo[22.3.1.12,5.014,22.015,19]nonacosa-1(28),2,4,14,16,19,21,24,26-nonaen-6-yl)phenyl]propanoic acid], in assay [1], the “DSLS (ΔTagg)” value is “B (a value above 5 °C and less than or equal to 10 °C is marked “B”)”. Further, the “TECC (test agent AUC divided by VX-809 AUC)” value in assay [2] is listed as “A (a TECC value less than 3 is marked “A”)”.

Consider `CN1CC(C)(C)CCCC(C)(c2cccc(CCC(=O)O)c2)c2cnc([nH]2)-c2cc(ccc2F)Oc2c(F)c(F)c3[nH]ccc3c2CCC1=O` (stereo not drawn) [Compound 70, 3-[3-(22,23,29-Trifluoro-6,10,10,12-tetramethyl-13-oxo-25-oxa-3,12,20,31-tetrazapentacyclo[24.3.1.12,5.016,24.017,21]hentriaconta-1(30),2,4,16,18,21,23,26,28-nonaen-6-yl)phenyl]propanoic acid], for which the “DSLS (ΔTagg)” value in assay [1] is “C (a value greater than 10 °C and less than or equal to 25 °C is marked “C”)”. The “TECC (test agent AUC divided by VX-809 AUC)” value in assay [2] was “A (a TECC value less than 3 is marked “A”)”.

The values are drawn from patent publication US20250197420A1, “MACROCYCLIC COMPOUNDS, COMPOSITIONS, AND METHODS OF USING THEREOF” (Sionna Therapeutics Inc., priority 2022, published 2025).
